According to patent publication US10781188B2, “Contrast agents” (BRACCO IMAGING S.P.A., priority 2015, dated 2020):

Assays:
[1] = Relaxivity r1p in physiologic solution (saline), 37° C.; format: physicochemical; conditions: for r1p at 0.47 T 37° C., saline: 0.47 T (20 MHz); for r1p at 1.41 T 37° C., saline: 1.41 T (60 MHz)
Protocol: (§1) The relaxometric properties of some representative complex compounds according to the invention have been determined at different magnetic field strengths, e.g. including 0.47 and 1.41 T, at 37° C. and in different media (physiologic solution and human plasma) and compared with relaxivity values measured, at the same conditions, for some Gd-Complex of the market having an analogous cyclic coordination cage.
(§2) The longitudinal water proton relaxation rate (R1=1/T1) was measured at 0.47 T with a Minispec MQ-20 spectrometer (Bruker Biospin, Germany) operating at a proton Larmor frequency of 20 MHz; MR experiments at 1.41 T were performed using a Minispec MQ-60 spectrometer (Bruker Biospin, Germany) operating at a proton Larmor frequency of 60 MHz.
(§3) All test articles were used as supplied and diluted in the selected medium (physiologic solution or human plasma) by weighting the required amount of paramagnetic chelated complex to get a 5 or 10 mM starting solution.
(§4) Five different concentration samples (0.1, 0.25, 0.5, 0.75 and 1 mM) for each medium have been prepared by further dilution of the starting 5 or 10 mM solution.
(§5) Relaxivity measurements were performed at 0.47 T and 1.41 T at a preset temperature sample of 37° C., kept constant by means of a thermostatic bath connected to the sample holder of the spectrometer. The five sample solutions have been preliminary pre-heated at 37° C. in an external thermostatic bath and then left 10 minutes inside the internal bath to assure the stabilization of the temperature. Longitudinal relaxation time T1 was measured by means of a standard inversion recovery sequence, where the inversion time (TI) was varied from 10 ms to at least 5 times T1 in 15 steps. Statistical analysis (mono-exponential fitting for T1 measurement, linear fitting for the evaluation of longitudinal relaxivity) was performed by Mathematica® (Wolfram, USA). Errors on the estimated parameters were evaluated by the fitting procedure.

[2] = Relaxivity r1p in human plasma, 37° C.; format: physicochemical; conditions: for r1p at 0.47 T 37° C., human plasma: 0.47 T (20 MHz); for r1p at 1.41 T 37° C., human plasma: 1.41 T (60 MHz)
Protocol: as §1, §2, §3, §4, §5

Row | SMILES | r1p at 0.47 T 37° C., saline [1] [mM⁻¹ s⁻¹] | r1p at 1.41 T 37° C., saline [1] [mM⁻¹ s⁻¹] | r1p at 0.47 T 37° C., human plasma [2] [mM⁻¹ s⁻¹] | r1p at 1.41 T 37° C., human plasma [2] [mM⁻¹ s⁻¹]
1 | O=C(O)CN1CCN(CC(=O)O)CCN(CC(O)CN2CC(CO)(CO)C(O)C(CO)(CO)C2)CCN(CC(=O)O)CC1 (centres unmarked) [Chelate Complex 5] | 7.7 | 7.7 | 9.6 | 8.9
2 | O=C([O-])CN1CCN(CC(=O)O)CCN(CC(=O)O)CCN(CC(O)CNC(CCc2ccccc2)P(=O)(O)[O+]=[Na])CC1 (centres unmarked) [Chelate Complex 6] | 8.3 | 8.2 | 13.8 | 11.9
3 | CCOP(=O)(O)CN(Cc1ccccc1)CC(O)CN1CCN(CC(=O)O)CCN(CC(=O)O)CCN(CC(=O)O)CC1 (centres unmarked) [Chelate Complex 8] | 7.4 | 7.3 | 10.2 | 9.0
4 | O=C(O)CN1CCN(CC(=O)O)CCN(CC(O)CN(CCOCCO)CCOCCO)CCN(CC(=O)O)CC1 (centres unmarked) [Chelate Complex 14] | 6.9 | 6.5 | 8.8 | 8.0
5 | CC(O)CN1CCN(CC(=O)O)CCN(CC(=O)O)CCN(CC(=O)O)CC1 (centres unmarked) [ProHance ®, Gd-HPDO3A, reference compound] | 3.5 | 3.1 | 4.9 | 4.15

The remaining lines, values ahead:

Row | r1p at 0.47 T 37° C., saline [1] [mM⁻¹ s⁻¹] | r1p at 1.41 T 37° C., saline [1] [mM⁻¹ s⁻¹] | r1p at 0.47 T 37° C., human plasma [2] [mM⁻¹ s⁻¹] | r1p at 1.41 T 37° C., human plasma [2] [mM⁻¹ s⁻¹] | SMILES
6 | 7.0 | 6.5 | 8.5 | 7.5 | O=C(O)CN1CCN(CC(=O)O)CCN(CC(O)CNCP(=O)(O)O)CCN(CC(=O)O)CC1 (centres unmarked) [Chelate Complex 2]
7 | 5.8 | 5.9 | 7.5 | 7.1 | O=C(O)CN1CCN(CC(=O)O)CCN(CC(O)CN(CC(=O)O)C(CO)CO)CCN(CC(=O)O)CC1 (centres unmarked) [Chelate Complex 13]
8 | 6.5 | 6.1 | 9.1 | 8.05 | O=C(O)CN1CCN(CC(=O)O)CCN(CC(O)CN(CC(=O)O)C2CCCCC2)CCN(CC(=O)O)CC1 (centres unmarked) [Chelate Complex 19]
9 | 6.1 | 6.1 | 8.5 | 8.3 | CN(CC(O)CN1CCN(CC(=O)O)CCN(CC(=O)O)CCN(CC(=O)O)CC1)CC(O)C(O)C(O)C(O)CO (centres unmarked) [Chelate Complex 21]
10 | 4.3 | 3.8 | 6.25 | 5.3 | NCC(O)CN1CCN(CC(=O)O)CCN(CC(=O)O)CCN(CC(=O)O)CC1 (centres unmarked) [Comparative 1, reference compound]
11 | 3.6 | 3.2 | 4.5 | 3.6 | O=C(O)CN1CCN(CC(=O)O)CCN(CC(=O)O)CCN(CC(=O)O)CC1 [Doratem ®, Gd-DOTA, reference compound]
